Test results reported in paper PMC5015959, “The Binding of Plasmodium falciparum Adhesins and Erythrocyte Invasion Proteins to Aldolase Is Enhanced by Phosphorylation” (PLoS ONE, 2016).
Where no end group is shown, it is not given here. The star is where a group is joined. Biotin = O=C1N[C@H]2[C@H](CS[C@H]2CCCCC(=O)*)N1

Experiments:
[1] = target: T1, P. falciparum aldolase (Plasmodium falciparum, UniProt Q7KQL9); assay: biochemical; assay type: binding; conditions: for increase in affinity for aldolase following phosphorylation: phosphorylated versus unmodified CTD, from Kd values of Table 3
T1 construct: made in house
T1 sequence (Q7KQL9 whole entry): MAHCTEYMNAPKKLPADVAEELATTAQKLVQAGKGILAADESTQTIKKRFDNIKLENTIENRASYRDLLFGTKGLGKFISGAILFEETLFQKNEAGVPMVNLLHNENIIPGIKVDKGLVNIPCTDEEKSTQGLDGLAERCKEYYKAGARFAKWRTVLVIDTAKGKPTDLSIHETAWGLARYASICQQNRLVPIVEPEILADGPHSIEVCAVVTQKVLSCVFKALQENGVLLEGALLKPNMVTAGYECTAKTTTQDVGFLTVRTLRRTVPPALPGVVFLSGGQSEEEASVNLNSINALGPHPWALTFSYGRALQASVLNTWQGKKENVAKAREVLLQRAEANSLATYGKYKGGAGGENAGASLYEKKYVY
Description: CTDs of four classes of type 1 membrane protein (AMA1 and the TRAP, EBL and RH families) that are potential adhesins or host cell invasion proteins derived from apical organelles, and present in the merozoite plasma membrane during invasion, were examined for their ability to bind to aldolase using bio-layer interferometry. Streptavidin-coated biosensors were loaded with biotinylated synthetic peptides or recombinant proteins representing either the full length CTDs or shorter C-terminal sequences (Table 1) and titrated with increasing aldolase concentrations. This analysis enabled the calculation of a dissociation constant (Kd) for each pair of proteins as a measure of the strength of interaction between them.
The effect of the CTD phosphorylation on aldolase binding was investigated using biolayer interferometry using phosphorylated synthetic peptides or peptides phosphorylated in vitro (Table 3).
Protein interactions were analysed by biolayer interferometry using the Octet Red system (ForteBio) at 25°C in 96-well microplates, as described previously. All assays were performed in 100 mM Tris-HCl pH 8.0, according to the manufacturer’s instructions. A baseline was established over 1 min, and biotinylated samples were loaded onto streptavidin sensors for 1 min. The sensors were washed for 1 min and then incubated with aldolase at different concentrations (0.05–250 μM) for 1 min, followed by a dissociation phase over 5 min. The experiments were performed in duplicate or triplicate depending on the experiment. The data were analysed as described previously.

[2] = system: CDPK1; assay: In vitro phosphorylation of CTDs by CDPK1; assay type: biochemical; design: key: Phosphorylation (+) was confirmed by electrospray-mass spectrometry; conditions: 10 μM kinase, 100 μM substrate, 1 mM ATP, 30°C, 3 hours; electrospray-mass spectrometry
Protocol: To examine whether or not phosphorylation affected the ability of the CTDs to bind aldolase, we first looked at their ability to be phosphorylated by serine/threonine kinases in vitro. Two kinases, CDPK1 and PKA, which have been implicated in phosphorylation of glideosome proteins, were chosen for this analysis (Table 2).
(§1) The phosphorylation of MTRAP and TRAP CTDs expressed as fusion proteins with GST was evaluated in vitro by ^32P incorporation (Fig 1A) and by electrospray (ES) mass spectrometry and collision-induced dissociation (CID) fragmentation analysis. […] Using ES-MS and CID it was determined that both CDPK1 and PKA phosphorylated AMA1 at Ser610 (S1B and S2B Figs), the residue implicated in earlier studies. […] CDPK1 but not PKA phosphorylated EBA140 (Table 2, S2E Fig), the exact sites of which were not determined (S1E Fig). […]
(§2) Phosphorylation assays were performed using 10 μM recombinant CDPK1 [37], PKA (Promega), or CK2 (New England Biolabs) in kinase buffer (20 mM Tris-HCl pH 8.0, 20 mM MgCl2, with or without 1 mM CaCl2) and 1 mM ATP at 30°C for 3 hours with 100 μM substrate protein. Products were analysed by mass spectrometry and used in binding assays (see below). […]
Non-phosphorylated, phosphorylated and biotinylated polypeptides were analysed by electrospray (ES)-mass spectrometry and collision-induced dissociation (CID) fragmentation pathway analysis. […]

[3] = system: CK2; assay: In vitro phosphorylation of CTDs by CK2; assay type: biochemical; conditions: 10 μM kinase, 100 μM substrate, 1 mM ATP, 30°C, 3 hours; ES-MS and CID
Protocol: as §1, with “analysis. […] MTRAP CTD produced as either a recombinant protein or as a synthetic peptide was also phosphorylated by PKA at the same two positions (S2A Fig).” for “analysis.”
as §2
Non-phosphorylated, phosphorylated and biotinylated polypeptides were analysed by electrospray (ES)-mass spectrometry and collision-induced dissociation (CID) fragmentation pathway analysis. […] Phosphorylation sites were determined using stand-alone nanospray on an LTQ Orbitrap Velos (Thermo Fisher Scientific). […]

Biotin-KNNKQEYDKEQEKQQQNDFVCDNNKMDDKSTQKYGRNQEEVMEIFFDNDYI [RH1 2921–2971]
Kd ([1]; biolayer interferometry (Octet Red), biotinylated CTD on streptavidin sensor, aldolase 0.05–250 μM, 100 mM Tris-HCl pH 8.0, 25°C, mean of duplicate reactions): 6.1 µM | increase in affinity for aldolase following phosphorylation [1]: around 2 fold | CTD peptide phosphorylation by CDPK1 in vitro [2]: +

Biotin-KNSNEPHHIFNIFQKEFSEADNAHSEEKEEYLPVYFDEVEDEVEDEVEDEDENENEVENENEDFNDI [RH4, cytoplasmic domain of RH4, residues 1650–1716]
increase in affinity for aldolase following phosphorylation [1]: no increase in affinity | phosphorylation by CK2 in vitro [3]: one phosphate group
